Measurements as given in patent publication US20090137549A1, “Novel compounds useful for the treatment of degenerative & inflamatory diseases” (priority 2006, published 2009).
Structures can show the parent of a compound that is named as a salt.

Biological target: PDE1A (Homo sapiens, UniProt P54750)
Test: PDE1A dose response, Cyclic Nucleotide Phosphodiesterase Assay Kit from Biomol (colorimetric)
Type: biochemical
Details: purified PDE1A enzyme, 100 μM cAMP
Source text: For the dose response and further screening, we used the Cyclic Nucleotide
Phosphodiesterase Assay Kit from Biomol, a colorimetric, non-radioactive assay. The basis for the assay is the cleavage of cAMP by PDE1A. The 5′AMP is further cleaved into the nucleoside and phosphate by the enzyme 5′-nucleotidase (catnr KI-307). The phosphate released due to enzymatic cleavage is quantified using BIOMOL GREEN™ reagent (catnr AK-111) in a modified Malachite Green assay^1,2. A PDE1A inhibitor will result in a decrease of the signal.
For the enzymatic reaction a mix of 25 μL with purified PDE1A enzyme, 100 μM cAMP, 5′Nucleotidase and the compound is made in a clear 384-plate. The reaction buffer is Tris 20 mM pH 7.4, 4 μg/mL calmodulin, 3 mM MgCl2, 1.5 mM CaCl2, 0.2 mg/mL BSA and 0.001% Brij-35. After an incubation of 45 minutes at 37° C., the reaction is stopped by the addition of 50 μL BIOMOL GREEN™ reagent. After 30 minutes incubation at room temperature, the readout is performed on the Envision (absorption at 615 nm).
All compounds are tested in duplicate starting from […] followed by a 1/3 serial dilution, 8 points (20 μM-6.67 μM-2.22 μM-740 nM-247 nM-82 nM-27 nM-9 nM) in a final concentration of 1% DMSO. As the positive dose response control compound Vardenafil is used. For the calculation of z′ and PIN values 10 μM Vardenafil is used as positive control (100% inhibition) and 1% DMSO as negative control (0% inhibition).
The following compounds have been or can be prepared according to the synthetic methods described above. For the purpose of Table 7 below, PDE1A activity of each compound, which can be determined using the assay methods described herein, is expressed as follows: […]

Structure (SMILES)	IC50 [nM]
Cc1nn(C2CCCCC2)c2nc(C3CCCN(C(=O)c4cccc(NS(C)(=O)=O)c4)C3)[nH]c(=O)c12 (stereo not drawn) [Example 64, N-(3-(3-(1-cyclohexyl-3-methyl-4-oxo-4,5-dihydro-1H-pyrazolo[3,4-d]pyrimidin-6-yl)piperidine-1-carbonyl)phenyl)methanesulfonamide]	101 to 500
O=C(NC1CCCNC1)N1CC(c2nc3c(cnn3C3CCCCC3)c(=O)[nH]2)C1 (stereo not drawn) [Example 182, 3-(1-Cyclohexyl-4-oxo-4,5-dihydro-1H-pyrazolo[3,4-d]pyrimidin-6-yl)-azetidine-1-carboxylic acid piperidin-3-ylamide trifluoroacetate]	501 to 1000
COc1ccccc1C(=O)N1CCCC(c2nc3c(c(C)nn3C3CCCCC3)c(=O)[nH]2)C1 (stereo not drawn) [Example 57, 1-cyclohexyl-6-(1-(2-methoxybenzoyl)piperidin-3-yl)-3-methyl-1H-pyrazolo[3,4-d]pyrimidin-4(5H)-one]	101 to 500
CN(C)c1ccc(C(=O)N2CCCC(c3nc4c(cnn4-c4ccccc4)c(=O)[nH]3)C2)cc1 (stereo not drawn) [Example 67, 6-(1-(4-(dimethylamino)benzoyl)piperidin-3-yl)-1-phenyl-1H-pyrazolo[3,4-d]pyrimidin-4(5H)-one]	101 to 500
Cc1nn(C2CCCCC2)c2nc(C3CCCN(C(=O)c4cccn4C)C3)[nH]c(=O)c12 (stereo not drawn) [Example 95, 1-cyclohexyl-3-methyl-6-(1-(1-methyl-1H-pyrrole-2-carbonyl)piperidin-3-yl)-1H-pyrazolo[3,4-d]pyrimidin-4(5H)-one]	501 to 1000
COc1cccc(C(=O)N2CC(c3nc4c(c(C)nn4C4CCCCC4)c(=O)[nH]3)C2)c1 [Example 52, 1-cyclohexyl-6-(1-(3-methoxybenzoyl)azetidin-3-yl)-3-methyl-1H-pyrazolo[3,4-d]pyrimidin-4(5H)-one]	101 to 500
CN(C)c1cccc(C(=O)N2CCCC(c3nc4c(cnn4C4CCCCC4)c(=O)[nH]3)C2)c1 (stereo not drawn) [Example 45, 1-cyclohexyl-6-(1-(3-(dimethylamino)benzoyl)piperidin-3-yl)-1H-pyrazolo[3,4-d]pyrimidin-4(5H)-one]	101 to 500
CCCn1nc(C)c2c(=O)[nH]c(C3CCCN(S(=O)(=O)c4ccc(OC)cc4)C3)nc21 (stereo not drawn) [Example 111, 6-(1-(4-methoxyphenylsulfonyl)piperidin-3-yl)-3-methyl-1-propyl-1H-pyrazolo[3,4-d]pyrimidin-4(5H)-one]	1000 to 1500
O=c1[nH]c(C2CN(/C(=C\[N+](=O)[O-])NCC3CCCCC3)C2)nc2c1cnn2C1CCCCC1 [Example 180, 1-Cyclohexyl-6-(1-(1-(cyclohexylmethylamino)-2-nitrovinyl)azetidin-3-yl)-1H=pyrazolo[3,4-d]pyrimidin-4(5H)-one]	101 to 500
Cc1nn(C2CCCCC2)c2nc(C3CCCN(S(=O)(=O)c4ccccc4OC(F)(F)F)C3)[nH]c(=O)c12 (stereo not drawn) [Example 107, 1-cyclohexyl-3-methyl-6-(1-(2-(trifluoromethoxy)phenylsulfonyl)piperidin-3-yl)-1H-pyrazolo[3,4-d]pyrimidin-4(5H)-one]	1000 to 1500
COc1cccc(N2CC(c3nc4c(cnn4C4CCCCC4)c(=O)[nH]3)C2)c1 [Example 166, 1-cyclohexyl-6-(1-(3-methoxyphenyl)azetidin-3-yl)-1H-pyrazolo[3,4-d]pyrimidin-4(5H)-one]	101 to 500
Cc1nn(C2CCCCC2)c2nc(C3CCCN(C(=O)CCc4ccccc4)C3)[nH]c(=O)c12 (stereo not drawn) [Example 112, 1-cyclohexyl-3-methyl-6-(1-(3-phenylpropanoyl)piperidin-3-yl)-1H-pyrazolo[3,4-d]pyrimidin-4(5H)-one]	1000 to 1500
CN1CCN(c2ccc3[nH]c(N4CC(c5nc6c(cnn6C(C)(C)C)c(=O)[nH]5)C4)nc3c2)CC1 [Example 144, 1-tert-butyl-6-(1-(5-(4-methylpiperazin-1-yl)-1H-benzo[d]imidazol-2-yl)azetidin-3-yl)-1H-pyrazolo[3,4-d]pyrimidin-4(5H)-one]	101 to 500
Cc1nn(C2CCCCC2)c2nc(C3CN(C(=O)N(C)Cc4ccc(F)cc4)C3)[nH]c(=O)c12 [Example 170, 3-(1-Cyclohexyl-3-methyl-4-oxo-4,5-dihydro-1H-pyrazolo[3,4-d]pyrimidin-6-yl)-N-(4-fluorobenzyl)-N-methylazetidine-1-carboxamide]	101 to 500
O=C(NCc1ccc(Cl)c(Cl)c1)N1CC(c2nc3c(cnn3C3CCCCC3)c(=O)[nH]2)C1 [Example 37, 3-(1-cyclohexyl-4-oxo-4,5-dihydro-1H-pyrazolo[3,4-d]pyrimidin-6-yl)-N-(3,4-dichlorobenzyl)azetidine-1-carboxamide]	1 to 100
COc1cccc(C(=O)N2CCCC(c3nc4c(c(C)nn4C4CCC4)c(=O)[nH]3)C2)c1 (stereo not drawn) [Example 78, 1-cyclobutyl-6-(1-(3-methoxybenzoyl)piperidin-3-yl)-3-methyl-1H-pyrazolo[3,4-d]pyrimidin-4(5H)-one]	501 to 1000
Cc1nn(-c2ccccc2)c2nc(C3CCCN(C(=O)c4ccc(C#N)cc4)C3)[nH]c(=O)c12 (stereo not drawn) [Example 109, 4-(3-(3-methyl-4-oxo-1-phenyl-4,5-dihydro-1H-pyrazolo[3,4-d]pyrimidin-6-yl)piperidine-1-carbonyl)benzonitrile]	1000 to 1500
O=c1[nH]c(C2CN(c3nc(-c4ccccc4)c(CN4CCOCC4)s3)C2)nc2c1cnn2C1CCCCC1 [Example 162, 1-Cyclohexyl-6-(1-(5-morpholin-4-ylmethyl-4-phenylthiazol-2-yl)azetidin-3-yl)-1H-pyrazolo[3,4-d]pyrimidin-4-(5H)-one]	1 to 100
CN(C)c1cccc(NC(=O)N2CC(c3nc4c(cnn4C4CCCCC4)c(=O)[nH]3)C2)c1 [Example 7, 3-(1-cyclohexyl-4-oxo-4,5-dihydro-1H-pyrazolo[3,4-d]pyrimidin-6-yl)-N-(3-(dimethylamino)phenyl)azetidine-1-carboxamide]	1 to 100
Cc1nn(C2CCCCC2)c2nc(C3CN(C(=O)OC(C)(C)C)C3)[nH]c(=O)c12 [Example 123, tert-butyl 3-(1-cyclohexyl-3-methyl-4-oxo-4,5-dihydro-1H-pyrazolo[3,4-d]pyrimidin-6-yl)azetidine-1-carboxylate]	101 to 500
O=c1[nH]c(C2CN(c3ncc(Br)s3)C2)nc2c1cnn2C1CCCCC1 [Example 140, 6-(1-(5-bromothiazol-2-yl)azetidin-3-yl)-1-cyclohexyl-1H-pyrazolo[3,4-d]pyrimidin-4(5H)-one]	501 to 1000

Now from value to compound:

IC50 [nM]	Structure (SMILES)
1 to 100	O=C(NCC1CCCCC1)N1CC(c2nc3c(cnn3C3CCCCC3)c(=O)[nH]2)C1 [Example 5, 3-(1-cyclohexyl-4-oxo-4,5-dihydro-1H-pyrazolo[3,4-d]pyrimidin-6-yl)-N-(cyclohexylmethyl)azetidine-1-carboxamide]
1 to 100	O=c1[nH]c(C2CN(c3nc(-c4ccccc4)cs3)C2)nc2c1cnn2C1CCCCC1 [Example 159, 1-Cyclohexyl-6-(1-(4-phenylthiazol-2-yl)azetidin-3-yl)-1H-pyrazolo[3,4-d]pyrimidin-4-(5H)-one]
1 to 100	CC(C)(C)NC(=O)N1CC(c2nc3c(cnn3C3CCCCC3)c(=O)[nH]2)C1 [Example 38, N-tert-butyl-3-(1-cyclohexyl-4-oxo-4,5-dihydro-1H-pyrazolo[3,4-d]pyrimidin-6-yl)azetidine-1-carboxamide]
1 to 100	Cc1nn(C(C)(C)C)c2nc(C3CN(C(=O)Nc4ccccc4)C3)[nH]c(=O)c12 [Example 6, 3-(1-tert-butyl-3-methyl-4-oxo-4,5-dihydro-1H-pyrazolo[3,4-d]pyrimidin-6-yl)-N-phenylazetidine-1-carboxamide]
1 to 100	Cc1nn(C2CCCCC2)c2nc(C3CN(C(=O)Nc4ccccc4)C3)[nH]c(=O)c12 [Example 14, 3-(1-cyclohexyl-3-methyl-4-oxo-4,5-dihydro-1H-pyrazolo[3,4-d]pyrimidin-6-yl)-N-phenylazetidine-1-carboxamide]
1 to 100	O=C(Nc1ccc(F)cc1)N1CC(c2nc3c(cnn3C3CCCCC3)c(=O)[nH]2)C1 [Example 19, 3-(1-cyclohexyl-4-oxo-4,5-dihydro-1H-pyrazolo[3,4-d]pyrimidin-6-yl)-N-(4-fluorophenyl)azetidine-1-carboxamide]
1 to 100	O=C(Nc1ccccc1)N1CC(c2nc3c(cnn3C3CCCCC3)c(=O)[nH]2)C1 [Example 11, 3-(1-cyclohexyl-4-oxo-4,5-dihydro-1H-pyrazolo[3,4-d]pyrimidin-6-yl)-N-phenylazetidine-1-carboxamide]
1 to 100	O=C(Nc1ccc(F)c(F)c1)N1CC(c2nc3c(cnn3C3CCCCC3)c(=O)[nH]2)C1 [Example 20, 3-(1-cyclohexyl-4-oxo-4,5-dihydro-1H-pyrazolo[3,4-d]pyrimidin-6-yl)-N-(3,4-difluorophenyl)azetidine-1-carboxamide]
1 to 100	N#C/N=C(/Nc1ccc(F)cc1)N1CC(c2nc3c(cnn3C3CCCCC3)c(=O)[nH]2)C1 [Example 177, N′-Cyano-3-(1-cyclohexyl-4-oxo-4,5-dihydro-1H-pyrazolo[3,4-d]pyrimidin-6-yl)-N-(4-fluorophenyl)azetidine-1-carboximidamide]
